Patent publication US20040044264A1, “Use of ionic liquids to separate olefins, diolefins and aromatics” (NOVA Chemicals (International) S.A., priority 2002, published 2004)
Like-named read-outs stand apart in the source and are kept apart here. Marks after values point to notes of the source that are not given here. Blank lines part the entries; values can stand above or below the molecule they belong to.

Assay: Hydrocarbon solubility in ionic liquid (volume change of hydrocarbon phase in graduated flask)
Protocol: The testing apparatus consisted of a flat-bottomed florence flask with a graduated neck. The flask was charged with 75 mL of bmim^+BF4^−, the level being recorded. A known quantity of C5 hydrocarbon was then added to the flask and the flask was sealed. The overall liquid level and the location of the liquid-liquid interfacial meniscus were recorded. The mixture was then agitated to contact the two liquids and the two phases were allowed to separate. The locations of all meniscuses were then recorded. Agitation and phase separation was then repeated until the liquid levels remained unchanged. The volume change of the hydrocarbon phase corresponds to the quantity of hydrocarbon dissolved in the ionic liquid. The testing was conducted at ambient temperature.
The procedure described in Example 1 was performed instead with ethylcyclohexane, ethylbenzene, and styrene. The ionic liquid used was 1-butyl-3-methylimidazolium tetrafluoroborate.

[1] = in bmim+ BF4- ionic liquid containing 1.69 M AgBF4
[2] = in bmim+ BF4- ionic liquid containing 1.69 M AgBF4, ambient temperature

Compound: CCC1CCCCC1 [Ethylcyclohexane]
Solubility (mol C8/L ionic liquid): 0.10 mol C8/L ionic liquid | Solubility (mol C8/mol Ag+): 0.06 mol C8/mol Ag+

Compound: CCC(C)C [Isopentane]
Solubility (mol C5/L ionic liquid): 0.044 mol C5/L ionic liquid | Solubility (mol C5/mol Ag+): 0.026 mol C5/mol Ag+

Compound: C=CC(=C)C [Isoprene]
Solubility (mol C5/L ionic liquid) [2]: 1.132 mol C5/L ionic liquid | Solubility (mol C5/mol Ag+) [2]: 0.670 mol C5/mol Ag+

Next, values leading:

Solubility (mol C8/L ionic liquid) [1]: 7.55 mol C8/L ionic liquid | Solubility (mol C8/mol Ag+) [1]: 4.47 mol C8/mol Ag+
Compound: CCc1ccccc1 [Ethylbenzene]

Solubility (mol C8/L ionic liquid) [1]: > 7.01* mol C8/L ionic liquid | Solubility (mol C8/mol Ag+) [1]: 4.15* mol C8/mol Ag+
Compound: C=Cc1ccccc1 [Styrene]
